Experimental data: patent US10160771B2, “Hepatitis C virus inhibitors and uses thereof in preparation of drugs” (priority 2014, dated 2018)

Legend:
[1] = system: HCV genotype 1a (HCV-1a) replicon cells; assay: HCV genotype 1a replicon luciferase assay (EC50); format: cell-based, hepatitis C virus genotype 1a (H77 clone); conditions: 3 days, luciferase (Bright-Glo)
How it was run: (§1)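 Replicon cells, 8000/well, 3 d, 37 °C; 6-pt 5-fold dilution from 100, 10 or 1 nM, 0.5% DMSO, duplicates; Bright-Glo luminescence → EC50 (nonlinear fit). 1a = H77 K1691R/K2040R/S2204I; 1b = Con1 E1202G/T1280I/K1846T.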

[2] = system: HCV-1b replicon cells; assay: Cell Titer-fluor cell activity assay in HCV-1b replicon cells (CC50); format: cell-based; conditions: 3 days
How it was run: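 CC50 derived by nonlinear fitting of inhibition % from Cell Titer-fluor signal (405/515 nm, 30 min). Cells: genotype 1b Con1 replicon carrying E1202G, T1280I, K1846T, seeded 8000/well with compound for 3 days, 37 °C, 0.5% DMSO; 6 points, 5-fold dilution, top 100, 10 or 1 nM, duplicates.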

[3] = system: HCV genotype 1b (HCV-1b) replicon cells; assay: HCV genotype 1b replicon luciferase assay (EC50); format: cell-based, hepatitis C virus genotype 1b (Con1 clone); conditions: 3 days, luciferase (Bright-Glo)
How it was run: as §1

Row | Compound | EC50 [1] | CC50 [2] | EC50 [3]
1 | COC(=O)N[C@H](C(=O)N1CCC[C@H]1c1ncc(-c2ccc(-c3ccc(-c4cnc([C@H]5C6CCC(C6)[C@@H]5C(=O)NC(c5cccnc5)C(C)C)[nH]4)cc3)cc2)[nH]1)C(C)C (single isomer, unassigned) [AA_233_C] | 10 to 100 nM | > 1 nM | 0.101 to 1 nM
2 | COC(=O)N[C@H](C(=O)N1CCC[C@H]1c1ncc(-c2ccc(-c3ccc(-c4cnc(C5C6CCC(C6)[C@@H]5C(=O)N[C@H](C)c5cccnc5)[nH]4)cc3)cc2)[nH]1)[C@@H](C)OC (single isomer, unassigned) [AA_253_C] | 10 to 100 nM | > 1 nM | 1 to 10 nM
3 | COC(=O)N[C@H](C(=O)N1CCC[C@H]1c1ncc(-c2ccc(-c3ccc(-c4cnc(C5C6CCC(C6)[C@@H]5C(=O)NC(C)c5cnccn5)[nH]4)cc3)cc2)[nH]1)[C@@H](C)OC (single isomer, unassigned) [AA_281_C] | 1 to 10 nM | > 1 nM | 0.101 to 1 nM
4 | COC(=O)NC(C(=O)N1CCCC1c1[nH]c(-c2ccc(-c3ccc(-c4cnc([C@@H]5CCCN5C(=O)[C@@H](NC(=O)OC)C(C)C)[nH]4)cc3)cc2)c2c1CCC2)C1CCOC1 (single isomer, unassigned) [AG_025_B] | 10 to 100 nM | > 10 nM | 0.001 to 0.1 nM
5 | COC(=O)NC(C(=O)N1CCCC1c1[nH]c(-c2ccc(-c3ccc(-c4cnc([C@@H]5CCCN5C(=O)[C@@H](NC(=O)OC)C(C)C)[nH]4)cc3)cc2)c2c1CCC2)C1CCOC1 (single isomer, unassigned) [AG_025_C] | 10 to 100 nM | > 10 nM | 0.101 to 1 nM
6 | COC(=O)N[C@H](C(=O)N1CCCC1c1ccc(-c2ccc(-c3ccc(-c4cnc([C@@H]5CCCN5C(=O)[C@@H](NC(=O)OC)[C@@H](C)OC)[nH]4)cc3)cc2)[nH]1)[C@@H](C)OC (single isomer, unassigned) [AG_072_B] | 1 to 10 nM | > 1 nM | 0.101 to 1 nM
7 | COC(=O)N[C@H](C(=O)N1CCC[C@H]1c1ncc(-c2ccc(-c3ccc(-c4cnc(C5C6CCC(C6)[C@@H]5C(=O)N[C@H](c5cccnc5)C(C)C)[nH]4)cc3)cc2)[nH]1)[C@@H](C)OC (stereo partly drawn) [AA_271_A] | 0.101 to 1 nM | > 1 nM | 0.001 to 0.1 nM
8 | COC(=O)N[C@H](C(=O)N1CCC[C@H]1c1ncc(-c2ccc(-c3ccc(-c4cnc(C5C6CCC(C6)[C@H]5C(=O)N[C@H](c5cccnc5)C(C)C)[nH]4)cc3)cc2)[nH]1)[C@@H](C)OC (stereo partly drawn) [AA_271_B] | 10 to 100 nM | > 1 nM | 0.101 to 1 nM
9 | COC(=O)N[C@H](C(=O)N1CCCC1c1ccc(-c2ccc(-c3ccc(-c4cnc(C5CCCN5C(=O)[C@@H](NC(=O)OCCF)C(C)C)[nH]4)cc3)cc2)[nH]1)C(C)C (stereo partly drawn) [AG_062] | 10 to 100 nM | > 10 nM | 0.101 to 1 nM
10 | COC(=O)N[C@H](C(=O)N1CCC[C@H]1c1ncc(-c2ccc(-c3ccc(-c4[nH]c([C@@H]5CCCN5C(=O)[C@@H](NC(=O)OC)[C@@H](C)OC)c5c4COC5)cc3)cc2)[nH]1)[C@@H](C)OC [AG_080_A] | 0.001 to 0.1 nM | > 5 nM | 0.001 to 0.1 nM
11 | COC(=O)N[C@H](C(=O)N1CC2(C[C@H]1c1ncc(-c3ccc(-c4ccc(-c5[nH]c([C@@H]6CCCN6C(=O)[C@@H](NC(=O)OC)[C@@H](C)OC)c6c5CCC6)cc4)cc3)[nH]1)OCCO2)[C@@H](C)OC [AG_089] | 1 to 10 nM | > 1 nM | 0.001 to 0.1 nM
